According to patent US20100009852A1, “Plant growth regulator” (priority 2008, published 2010):
Values joined by “and” are separate entries in the source; they are usually repeats but may differ in a detail not shown here. Equal values may be shown once.

Tests used:
[1] = test system: maize (Zea mays—variety Oldham); experiment: Root growth promotion: maize germination in a soil free test system; assay type: in vivo; details: for Fresh weight of harvested roots, Mean of 4 replicates / Fresh weight of harvested roots, single replicate: 13 days after sowing, Blank WP mean 317; for Fresh weight of harvested roots, single replicate: roots of 10 seeds per container
Experimental: 8 cm round filter papers were placed in 9.5 cm square clear plastic tissue culture containers (ICN Biomedicals, Inc). The paper in each of 4 containers were wetted with 2 ml of tap water containing 2500, 1250 or 625 ppm of cyprosulfamide provided as a 20% wettable powder formulation (WP). 4 further containers were wetted with tap water containing blank WP formulation (i.e. all components except cyprosulfamide). Into each Petri dish 10 seeds of maize (Zea mays—variety Oldham) were evenly spread and the lids put in place. The Petri dishes were placed in glasshouse set to 24° C.±2° C. day and 17° C.±2° C. night. High-pressure mercury lamps (400 W) were used to augment daylight during cloudy conditions. As required, small volumes of water were added to the Petri dishes as necessary to keep the filter paper moist. After 13 days the roots from all seeds per container were harvested by cutting as close to the base as possible. The fresh weight of roots was measured immediately.

[2] = test system: maize varieties (Cecilia and Abraxas); experiment: Shoot growth regulation: glasshouse pot trial, plant height of 2 maize varieties; assay type: in vivo; details: for Mean plant height per pot, Mean of 8 replicates / Mean plant height per pot, single replicate: 25 days after sowing
Experimental: Three cyprosulfamide treatment methods (1 to 3) were used in a trial designed to investigate effects on shoot development. Treatment method 1 was a seed treatment. For this, fifty seeds each of two maize varieties ([…] and Abraxas) were weighed and placed into each of 50 ml glass screw cap bottles. To one of these bottles sufficient wettable powder formulation of cyprosulfamide (20% formulation) was added to provide 1 g of cyprosulfamide per 1000 g of seed. To the second bottle the same amount of a blank formulation (same components but lacking cyprosulfamide) was added. To each bottle 10 ml of deionised water was added the caps fitted. The bottles were then placed on a shaker for 20 minutes so that the seeds were evenly coated with the formulation. For methods 2 and 3, 240 peat pots (7 cm diameter) were filled to within 3 cm of the top with steam sterilised sandy-loam soil (20% sand, 57% silt, 23% clay, pH 6.8 and 1.4% organic matter). In addition, 120 Petri dishes (10 cm diameter) were filled (1 cm depth) with the same soil. The 20% wettable powder formulation of cyprosulfamide was dispersed in de-ionised water to produce the required concentration (ppm). 120 pots (Treatment 2) and the all 120 Petri dishes (Treatment 3) were placed on “feed-belt” of a track-sprayer. The spray solution of cyprosulfamide was placed into the spray vessel and applied to the target pots/dishes at a spray volume of 300 l/ha via a flat fan nozzle. This provided a dose rate equivalent to 1000 g of cyprosulfamide per hectare soil surface. For treatment method 1, five treated maize seed were sown onto 8 replicate untreated pots and covered with untreated soil. For treatment method 2, five untreated seeds were sown onto 8 replicate treated pots and covered with untreated soil. For treatment method 3, five untreated seeds were sown onto 8 replicate untreated pots and covered using the treated soil from the Petri dishes. Control (Treatment 4) had also untreated seeds on untreated soil. The placement of cyprosulfamide as a result of these treatment methods is shown in FIG. 1 All the pots were watered and placed in a glasshouse set to 24° C.±2° C. day and 17° C.±2° C. night. The relative humidity was normally above 60%. High-pressure mercury lamps (400 W) were used to augment daylight during cloudy conditions. Pots were watered as required. 25 days after sowing the height of each plant was measured from soil surface to tip of tallest leaf which was held up against a ruler.

[3] = variety Abraxas, treatment 1 = seed treatment, 1 g per 1000 g seed, untreated mean 36.0
[4] = variety Abraxas, treatment 2 = soil below seed, 1000 g per hectare, untreated mean 36.0
[5] = variety Abraxas, treatment 3 = soil above seed, 1000 g per hectare, untreated mean 36.0
[6] = variety Cecilia, treatment 1 = seed treatment, 1 g per 1000 g seed, untreated mean 55.3
[7] = variety Cecilia, treatment 2 = soil below seed, 1000 g per hectare, untreated mean 55.3
[8] = variety Cecilia, treatment 3 = soil above seed, 1000 g per hectare, untreated mean 55.3

COc1ccccc1C(=O)NS(=O)(=O)c1ccc(C(=O)NC2CC2)cc1 [cyprosulfamide]
Fresh weight of harvested roots, Mean of 4 replicates ([1]; WP + 625 ppm a.i.): 620 mg | Fresh weight of harvested roots, single replicate ([1]; WP + 625 ppm a.i.): 587 mg and 579 mg and 547 mg and 767 mg | Fresh weight of harvested roots, Mean of 4 replicates ([1]; WP + 1250 ppm a.i.): 838 mg | Fresh weight of harvested roots, single replicate ([1]; WP + 1250 ppm a.i.): 700 mg and 717 mg and 846 mg and 1087 mg | Fresh weight of harvested roots, Mean of 4 replicates ([1]; WP + 2500 ppm a.i.): 778 mg | Fresh weight of harvested roots, single replicate ([1]; WP + 2500 ppm a.i.): 918 mg and 1211 mg and 634 mg and 350 mg | root development of germinating maize seed ([1]; in the presence of cyprosulfamide (625-2500 ppm) versus blank WP): significantly enhanced | effect on plant height (statistical analysis) ([2]; all treatments (1 to 3) versus untreated, in Cecilia and Abraxas): significantly reduced plant height | Mean plant height per pot, Mean of 8 replicates [2, 3]: 26.3 cm | Mean plant height per pot, single replicate [2, 3]: 28.2 cm and 20.8 cm and 31.6 cm and 22.6 cm and 25.2 cm and 22.2 cm and 28.8 cm and 30.6 cm | Mean plant height per pot, Mean of 8 replicates [2, 4]: 33.4 cm | Mean plant height per pot, single replicate [2, 4]: 34.2 cm and 34.5 cm and 34.4 cm and 33.4 cm and 32.2 cm and 33.6 cm and 30.5 cm and 34.6 cm | Mean plant height per pot, Mean of 8 replicates [2, 5]: 30.4 cm | Mean plant height per pot, single replicate [2, 5]: 25.2 cm and 26.6 cm and 29.6 cm and 32.2 cm (2×) and 31.4 cm and 32.8 cm and 33.0 cm | Mean plant height per pot, Mean of 8 replicates [2, 6]: 41.2 cm | Mean plant height per pot, single replicate [2, 6]: 34.3 cm and 40.7 cm and 50.0 cm and 38.3 cm and 39.3 cm and 44.0 cm and 41.0 cm and 41.7 cm | Mean plant height per pot, Mean of 8 replicates [2, 7]: 44.4 cm | Mean plant height per pot, single replicate [2, 7]: 46.0 cm (2×) and 50.0 cm and 48.2 cm and 42.8 cm and 41.7 cm and 40.6 cm and 40.3 cm | Mean plant height per pot, Mean of 8 replicates [2, 8]: 47.8 cm | Mean plant height per pot, single replicate [2, 8]: 43.0 cm and 54.0 cm and 47.6 cm and 47.0 cm and 55.5 cm and 58.0 cm and 36.8 cm and 40.8 cm
